# Laboratory results from patent publication US20170319552A1, “ATROPISOMERS OF TRIAZOLE DERIVATIVE” (ARDEA BIOSCIENCES, INC., priority 2016, published 2017).
# Like-named read-outs stand apart in the source and are kept apart here.
# Key:
# [1] = Atropisomer interconversion, thermal challenge in organic solvent (acetonitrile); assay type: physicochemical
# Method: (§1) The individual atropisomers of Compound (I), atropisomer 1 and atropisomer 2 (elution order from normal-phase chiral chromatography) were exposed to various conditions, including thermal challenge in both organic and aqueous media and exposure to simulated biological conditions, to ascertain whether they readily interconvert.
# Samples of each separate atropisomers were held at 60° C. for four days and then analyzed by high performance liquid chromatography (AGMS02 Agilent 1100) on a normal phase amylose-based chiral column (ChiralPak IA-3, 3 μm, 100×4.6 mm, column 244), using isocratic elution and UV detection at 226 nm (see example 1).
# [2] = Atropisomer interconversion, thermal challenge in aqueous solvent (dilute sodium bicarbonate); assay type: physicochemical
# Method: as §1
# Atropisomer 1 was dissolved in dilute aqueous sodium bicarbonate solution. Atropisomer 2 was dissolved in dilute aqueous sodium bicarbonate solution. […] Samples of the resulting solutions were exposed to room temperature (rt), 60° C., and 100° C. for four days. After four days, the samples were concentrated to dryness (SpeedVac evaporator—DNA120, property H001630), redissolved in acetonitrile and analyzed by high performance liquid chromatography (AGMS02 Agilent 1100) on a normal phase amylose-based chiral column (ChiralPak IA-3, 3 μm, 100×4.6 mm, column 244), using isocratic elution and UV detection at 226 nm (see example 1). […] Sample chromatograms at t0, 60° C., and 100° C. after four days, are depicted in FIG. 3A, FIG. 3B and FIG. 3C respectively.
# [3] = In vitro metabolism, incubations with human liver microsomes; assay type: in vitro ADME
# Method: (§2) Human liver microsomes (0.5 mg/mL; mixed gender, ultrapooled, BD Biosciences, catalog number 452117) were incubated at 37±1° C. in 0.2 mL (final volume) of incubation mixtures containing potassium phosphate buffer (100 mM, pH7.4), MgCl2 (3 mM), NADPH (1 mM), and the atropisomers (1, 10, or 50 μM) (all experiments performed in duplicate). Stock solutions of atropisomers were prepared with DMSO at 100 mM. The final concentration of DMSO in the incubation was at or less than 0.05%. Reactions were initiated by addition of NADPH solution and terminated at predetermined time point (30 min) by addition of stop reagent (300 μL chilled acetonitrile containing 0.1 μM of 7-hydroxycoumarin as an internal standard). After incubation, microsomal proteins were precipitated by centrifugation at 3300×g for 15 min at 4° C. Supernatant fractions were analyzed by LC-MS/MS.
# (§3) HPLC mass spectrometer system: An API4000 triple quadrupole mass spectrometer equipped with electrospray ionization ion source was used for quantitation and operated in positive mode. The HPLC system consisted of a CTC Analytics PAL autosampler, an Agilent 1100 series degasser (G1379A), and an Agilent 1100 series binary pump (G1312A). […]
# (§4) The formation of M3, M3c, M4 and M6 from each atropisomer in liver microsomal and recombinant CYP incubations was determined, based on the peak area ratio of analyte over internal standard (IS)
# [4] = In vitro metabolism, human liver microsomes in the presence of mEH inhibitor valpromide; assay type: in vitro ADME
# Method: as §2, with “atropisomer” for “and the atropisomers”, “50 μM) and valpromide (0, 50, or 100” for “50”, “duplicate).” for “duplicate). Stock solutions of atropisomers were prepared with DMSO at 100 mM. The final concentration of DMSO in the incubation was at or less than 0.05%.”
# as §3, §4
# recombinant human CYP2C9 = recombinant human CYP2C9 (Homo sapiens, UniProt P11712); assay: Metabolite formation with recombinant human CYP2C9; assay type: in vitro ADME
# Method: as §4
# [5] = In vivo human metabolism, plasma and urine pharmacokinetics after single oral dose of racemic Compound (I); settings: human
# Method: Plasma samples were collected prior to dosing (within 30 minutes before dosing) and at the following timepoints: 0.5, 1, 1.5, 2, 3, 4, 5, 6, 8, 10, 12, and 24 hours postdose. Urine was also collected. […] The supernatant was diluted with injection solvent and analyzed by HPLC with tandem mass spectrometry (LC/MS/MS). […] The calibration curves were linear over the concentration range between 5.00 ng/mL and 2000 ng/mL with a lower limit of quantification (LLOQ) of 5.00 ng/mL.
# Using the above data, the following plasma pharmacokinetic parameters were calculated using validated Phoenix WinNonlin, version 6.3 (Pharsight Corporation, Mountain View, Calif.) and are shown (geometric mean 95% CI) in tables 11, 12, and 13 below.
# • Cmax: Maximum observed concentration (μg/mL) • Tmax: Time of occurrence of maximum observed concentration (hr) • AUC0-24: Area under plasma concentration-vs-time curve, from time 0 to 24 hours postdose (μg·hr/mL) • C24: Concentration 24 hours post dose (μg/mL) • t1/2: Apparent terminal half-life (hr)
# [6] = Urine PK Parameters (Geometric mean, CI 95%), single oral 400 mg racemic Compound (I)
# [7] = plasma, geometric mean, single oral 400 mg racemic Compound (I)
# Chain of recombinant human CYP2C9 (P11712 whole entry): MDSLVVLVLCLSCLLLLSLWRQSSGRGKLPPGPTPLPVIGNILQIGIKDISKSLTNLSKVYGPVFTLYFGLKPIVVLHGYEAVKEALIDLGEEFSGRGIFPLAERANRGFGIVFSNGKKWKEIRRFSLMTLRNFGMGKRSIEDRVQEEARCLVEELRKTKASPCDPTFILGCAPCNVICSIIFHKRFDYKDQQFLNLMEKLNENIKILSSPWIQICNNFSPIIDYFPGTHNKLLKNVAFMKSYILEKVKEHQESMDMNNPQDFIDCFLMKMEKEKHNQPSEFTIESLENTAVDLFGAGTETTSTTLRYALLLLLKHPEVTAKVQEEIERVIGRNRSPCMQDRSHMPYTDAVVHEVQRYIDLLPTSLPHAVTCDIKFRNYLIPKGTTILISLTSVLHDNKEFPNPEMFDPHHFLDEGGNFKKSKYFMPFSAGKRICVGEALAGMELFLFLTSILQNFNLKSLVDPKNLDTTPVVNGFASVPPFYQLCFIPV
smiles,measurement,setting,value
"O=C(O)CSc1nnc(Br)n1-c1ccc(C2CC2)c2ccccc12 (single isomer, unassigned) [Atropisomer 1, (−)-2-(5-bromo-4-(4-cyclopropylnaphthalen-1-yl)-4H-1,2,4-triazol-3-ylthio)acetic acid]",% Atropisomer 1,"[1]; acetonitrile 0.25 mg/mL, t0",99.7%
same,% Atropisomer 2,"[1]; acetonitrile 0.25 mg/mL, t0",0.3%
same,% Atropisomer 1,"[1]; acetonitrile, 60° C. 4 days",99.7%
same,% Atropisomer 2,"[1]; acetonitrile, 60° C. 4 days",0.3%
same,% Atropisomer 1,[2]; 60° C. 4 days,99.8%
same,% Atropisomer 2,[2]; 60° C. 4 days,0.2%
same,% Atropisomer 1,[2]; 100° C. 4 days,99.6%
same,% Atropisomer 2,[2]; 100° C. 4 days,0.4%
same,% Atropisomer 1,"[2]; rt, 4 days",99.8%
same,% Atropisomer 2,"[2]; rt, 4 days",0.2%
same,% Atropisomer 1,[2]; t0 (control),99.8%
same,% Atropisomer 2,[2]; t0 (control),0.2%
same,M3c formation,[3],predominantly formed
same,M3c level in the presence of valpromide (mEH inhibitor),[4],greatly increased
same,"Formation of M3c, CYP2C9 mediated, atropisomer 1 versus atropisomer 2",recombinant human CYP2C9,significantly greater
same,Ae0-24,[5]; [6],66.3 mg
same,CLR0-24,[5]; [6],42.6 mL/min
same,concentration at 0.5 h,"[5]; male, plasma, po, 400 mg, 0.5 hr postdose, single oral 400 mg Compound (I) racemic mixture, adult male subjects",65 ng/mL
same,concentration at 1 h,"[5]; male, plasma, po, 400 mg, 1 hr postdose, single oral 400 mg Compound (I) racemic mixture, adult male subjects",1720 ng/mL
same,concentration at 1.5 h,"[5]; male, plasma, po, 400 mg, 1.5 hr postdose, single oral 400 mg Compound (I) racemic mixture, adult male subjects",3600 ng/mL
same,concentration at 2 h,"[5]; male, plasma, po, 400 mg, 2 hr postdose, single oral 400 mg Compound (I) racemic mixture, adult male subjects",4460 ng/mL
same,concentration at 3 hr,"[5]; male, plasma, po, 400 mg, 3 hr postdose, single oral 400 mg Compound (I) racemic mixture, adult male subjects",5740 ng/mL
same,concentration at 4 hr,"[5]; male, plasma, po, 400 mg, 4 hr postdose, single oral 400 mg Compound (I) racemic mixture, adult male subjects",4560 ng/mL
same,concentration at 5 hr,"[5]; male, plasma, po, 400 mg, 5 hr postdose, single oral 400 mg Compound (I) racemic mixture, adult male subjects",3430 ng/mL
same,concentration at 6 hr,"[5]; male, plasma, po, 400 mg, 6 hr postdose, single oral 400 mg Compound (I) racemic mixture, adult male subjects",1960 ng/mL
same,concentration at 8 hr,"[5]; male, plasma, po, 400 mg, 8 hr postdose, single oral 400 mg Compound (I) racemic mixture, adult male subjects",811 ng/mL
same,concentration at 10 hr,"[5]; male, plasma, po, 400 mg, 10 hr postdose, single oral 400 mg Compound (I) racemic mixture, adult male subjects",415 ng/mL
same,concentration at 12 hr,"[5]; male, plasma, po, 400 mg, 12 hr postdose, single oral 400 mg Compound (I) racemic mixture, adult male subjects",248 ng/mL
same,concentration at 24 h,"[5]; male, plasma, po, 400 mg, 24 hr postdose, single oral 400 mg Compound (I) racemic mixture, adult male subjects",33 ng/mL
same,AUC(0-t),"[5]; male, plasma, po, 400 mg, Plasma Concentration (Mean), single oral 400 mg racemic Compound (I), read-out: AUC0-24",27100 ng·h/mL
same,Cmax,"[5]; male, plasma, po, 400 mg, Plasma Concentration (Mean), single oral 400 mg racemic Compound (I), read-out: Cmax",6600 ng/mL
same,Cmax,"[5]; male, plasma, po, 400 mg, plasma, geometric mean, single oral 400 mg racemic Compound (I), read-out: Cmax: Maximum observed concentration",6230 ng/mL
same,half-life,"[5]; male, plasma, po, 400 mg, plasma, geometric mean, single oral 400 mg racemic Compound (I), read-out: t1/2: Apparent terminal half-life (converted)",3.59 h
same,concentration at 0 h,"[5]; male, plasma, po, 400 mg, time 0 hr (prior to dosing), single oral 400 mg Compound (I) racemic mixture, adult male subjects",0 ng/mL
same,Tmax,"[5]; male, plasma, po, 400 mg, read-out: Tmax: Time of occurrence of maximum observed concentration",3 h
same,"AUC0-24: Area under plasma concentration-vs-time curve, from time 0 to 24 hours postdose",[5]; [7],25.9 µg·h/mL
same,C24 h: Concentration 24 hours post dose,[5]; [7],21.6 ng/mL
